Measured values taken from US20260158102A1, “CYCLIC PEPTIDE DERIVATIVE COMPOSITION FOR TREATING OR PREVENTING NEUROPATHIC PAIN AND/OR INFLAMMATORY PAIN” (DKS Co. Ltd., priority 2022, published 2026).

Assay: Body weight measurement in rat STZ-induced diabetes model
Assay type: in vivo
Settings: mean ± SE, in g (unit assumed)
Description: Compound 9 (50 mg/mL) was diluted with water for injection to obtain a 1 mg/mL administration specimen. For the specimens to be administered at 0.1 mg/mL and 0.01 mg/mL, the specimen to be administered at 1 mg/mL was diluted stepwise with water for injection. Each administration specimen was divided into PP disposable tubes every day and stored in a storehouse (freezer: MDF-MU339H-PJ, PHC Corporation) under the condition of freezing (−30° C. to −20° C., measured value: −26.4 to −24.5° C.). Preparation was performed on the day before the start of administration.
Water for injection was added to and dissolved in Pregabalin taken out from the capsule to obtain 2 mg/mL. It was prepared before use.
• Animal species: rat (SPF) • Strain: Crl: CD (SD) • Date of animal acquisition, gender, age in weeks, number of animals acquired, and weight range after 1 day of acquisition • First and second courses: Apr. 6, 2022, male, 7 weeks old, 35 animals, 217 to 237 g • Third and fourth courses: Apr. 13, 2022, male, 7 weeks old, 35 animals, 216 to 235 g • Source: […].
• Dose volume: calculated at 2 mL/kg based on the body weight on the day of administration. • Number of times of administration: once • Day of administration: 7 days before the day of starting administration of the test substance.
• Dose volume: calculated at 1 mL/kg based on the body weight on the day of administration. • Number of times of administration: 9 times • Interval of administration: once every 3 days (evaluation was performed on the day after administration) • Day of starting administration: day 8 of STZ administration (day of STZ administration is counted as day 1).
• Dose volume: calculated at 10 mL/kg based on the body weight on the day of administration. • Number of times of administration: Administration was performed once on the day of evaluation of neuropathic pain, twice in total, and on the other days of administration, a vehicle for a control substance (water for injection) was orally administered.
• Measurement was performed every day after the day of STZ administration.
The mean and standard error of each group were calculated for the 50% withdrawal threshold, body weight, and blood glucose level.
The body weight was an integer.
No significant difference test of body weight and blood glucose levels was performed.

`CC[C@@]1(C)Oc2cc(ccc2O)C[C@H](NC)C(=O)N[C@@H](C(C)C)C(=O)N[C@@H]1C(=O)N[C@@H](CC(=O)O)C(=O)O` [Compound 9] gave a Body weight (0.1 mg/kg iv, day 10 of STZ administration) of 295 ± 6, a Body weight (0.1 mg/kg iv, day 11 of STZ administration) of 298 ± 6 and a Body weight (0.1 mg/kg iv, day 12 of STZ administration) of 300 ± 4. It also gave a Body weight (0.1 mg/kg iv, day 13 of STZ administration) of 303 ± 6, a Body weight (0.1 mg/kg iv, day 14 of STZ administration) of 305 ± 5 and a Body weight (0.1 mg/kg iv, day 15 of STZ administration) of 300 ± 6. It also gave a Body weight (0.1 mg/kg iv, day 16 of STZ administration) of 302 ± 7, a Body weight (0.1 mg/kg iv, day 17 of STZ administration) of 307 ± 7 and a Body weight (0.1 mg/kg iv, day 18 of STZ administration) of 305 ± 7. For the same compound, the Body weight (0.1 mg/kg iv, day 19 of STZ administration) was 310 ± 8, the Body weight (0.1 mg/kg iv, day 20 of STZ administration) was 312 ± 8 and the Body weight (0.1 mg/kg iv, day 21 of STZ administration) was 307 ± 7. The Body weight (0.1 mg/kg iv, day 22 of STZ administration) was 311 ± 7, the Body weight (0.1 mg/kg iv, day 23 of STZ administration) was 314 ± 8 and the Body weight (0.1 mg/kg iv, day 24 of STZ administration) was 312 ± 7. It also gave a Body weight (0.1 mg/kg iv, day 25 of STZ administration) of 312 ± 7, a Body weight (0.1 mg/kg iv, day 26 of STZ administration) of 312 ± 7 and a Body weight (0.1 mg/kg iv, day 27 of STZ administration) of 310 ± 8. For the same compound, the Body weight (0.1 mg/kg iv, day 28 of STZ administration) was 315 ± 8, the Body weight (0.1 mg/kg iv, day 29 of STZ administration) was 311 ± 7 and the Body weight (0.1 mg/kg iv, day 30 of STZ administration) was 313 ± 8. For the same compound, the Body weight (0.1 mg/kg iv, day 31 of STZ administration) was 310 ± 8, the Body weight (0.1 mg/kg iv, day 32 of STZ administration) was 312 ± 8 and the Body weight (0.1 mg/kg iv, day 33 of STZ administration) was 308 ± 8. For the same compound, the Body weight (1 mg/kg iv, day 1 of STZ administration) was 293 ± 5, the Body weight (1 mg/kg iv, day 2 of STZ administration) was 282 ± 6 and the Body weight (1 mg/kg iv, day 3 of STZ administration) was 277 ± 4. It also gave a Body weight (1 mg/kg iv, day 4 of STZ administration) of 279 ± 4, a Body weight (1 mg/kg iv, day 5 of STZ administration) of 284 ± 5 and a Body weight (1 mg/kg iv, day 6 of STZ administration) of 286 ± 5. For the same compound, the Body weight (1 mg/kg iv, day 7 of STZ administration) was 291 ± 5, the Body weight (1 mg/kg iv, day 8 of STZ administration) was 290 ± 5 and the Body weight (1 mg/kg iv, day 9 of STZ administration) was 291 ± 5. For the same compound, the Body weight (1 mg/kg iv, day 10 of STZ administration) was 294 ± 6, the Body weight (1 mg/kg iv, day 11 of STZ administration) was 300 ± 7 and the Body weight (1 mg/kg iv, day 12 of STZ administration) was 299 ± 6. It also gave a Body weight (1 mg/kg iv, day 13 of STZ administration) of 303 ± 6, a Body weight (1 mg/kg iv, day 14 of STZ administration) of 302 ± 6 and a Body weight (1 mg/kg iv, day 15 of STZ administration) of 303 ± 7. For the same compound, the Body weight (1 mg/kg iv, day 16 of STZ administration) was 303 ± 8, the Body weight (1 mg/kg iv, day 17 of STZ administration) was 305 ± 8 and the Body weight (1 mg/kg iv, day 18 of STZ administration) was 306 ± 7. It also gave a Body weight (1 mg/kg iv, day 19 of STZ administration) of 307 ± 7, a Body weight (1 mg/kg iv, day 20 of STZ administration) of 305 ± 9 and a Body weight (1 mg/kg iv, day 21 of STZ administration) of 304 ± 8. It also gave a Body weight (1 mg/kg iv, day 22 of STZ administration) of 309 ± 8, a Body weight (1 mg/kg iv, day 23 of STZ administration) of 309 ± 9 and a Body weight (1 mg/kg iv, day 24 of STZ administration) of 311 ± 9. The Body weight (1 mg/kg iv, day 25 of STZ administration) was 309 ± 9, the Body weight (1 mg/kg iv, day 26 of STZ administration) was 311 ± 9 and the Body weight (1 mg/kg iv, day 27 of STZ administration) was 308 ± 9. It also gave a Body weight (1 mg/kg iv, day 28 of STZ administration) of 309 ± 9, a Body weight (1 mg/kg iv, day 29 of STZ administration) of 310 ± 9 and a Body weight (1 mg/kg iv, day 30 of STZ administration) of 308 ± 10. The Body weight (1 mg/kg iv, day 31 of STZ administration) was 306 ± 9, the Body weight (1 mg/kg iv, day 32 of STZ administration) was 309 ± 10 and the Body weight (1 mg/kg iv, day 33 of STZ administration) was 308 ± 10.
